Assay [1] relates to WI38 cells. The assay is described as follows: Reversal of nicotine-induced LIF-to-MYF transdifferentiation in WI38 cells, Western analysis. The following applies: for reversal of nicotine-induced decrease in PTHrP receptor expression: 7 days agonist after 7 days nicotine 10^−9 M (Example 3); for reversal of nicotine-induced decrease in PPARγ expression / reversal of nicotine-induced increase in αSMA expression: 7 days agonist after 7 days nicotine (Example 3); for reversal of nicotine-induced changes in expression of PTHrP receptor, PPARγ, ADRP, αSMA and calponin: RGZ 1×10^−5 M, PTHrP 5×10^−7 M, DBcAMP 1×10^−5 M for 7 days after 7 days nicotine.
Description: The human embryonic cell line WI38 was obtained from the American Type Culture Collection (Rockville, Md.). Cells were grown in minimum essential medium (MEM) +10% fetal bovine serum at 37° C. in six-well plates, two well slides, and 60-mm and 100-mm culture dishes, as needed. […] Subsequently, the cells were treated with rosiglitazone (RGZ) (1×10^−5 M) (a PPARγ agonist), PTHrP (5×10^−7 M), or DBcAMP (1×10^−5 M) for 7 days, and the expression of PTHrP receptor, PPARγ, ADRP, calponin, and cSMA was determined by Western analysis and immunohistochemistry. Simultaneously, fibroblast function was characterized by measuring their capacity to take up triglycerides. Some experiments were performed in the presence of a specific PPARγ antagonist, GW9662. Medium containing fresh chemicals was added daily, and at the end of the experimental period the cells were processed as needed.
For Western blotting, cells were lysed using an extraction buffer [10 mM tris (hydroxymethyl) aminomethane (Tris, pH 7.5), 0.25 M sucrose, 1 mM EDTA, 5 mM benzamidine, 2 mM phenylmethylsulfonyl fluoride, and 10 (j.tg/ml each of pepstatin A, aprotinin, and leupeptin], and centrifuged at 140 g for 10 min (4° C.). Equal amounts of the protein (25 μg) from the supernatant were dissolved in electrophoresis sample buffer and were subjected to sodium dodecyl sulfate-polyacrylamide (4%-12% gradient) gel electrophoresis (SDS-PAGE) followed by electrophoretic transfer to a nitrocellulose memane. The nonspecific binding of antibody was blocked by washing with Tris-buffered saline (TBS) containing 0.1% Tween 20 (TBST) and 5% milk for 1 h. The blot was then subjected to two brief washes with TBST plus 0.5% Tween 20, incubated in TBST plus 0.1% Tween 20 and the specific primary antibodies (PPARγ 1:2000, Alexis Biochemicals, San Diego, Calif.; cSMA 1:50,000, Sigma, St. Louis, Mo.: ADRP 1:3000) overnight at 4° C. Blots were then washed in TBST plus 0.1% Tween 20 and then incubated for 1 h in secondary antibody, washed, and developed with a chemiluminescent substrate [enhanced chemiluminescence (ECL); Amersham, Arlington Heights, Ill.] following the manufacturer's protocol. The densities of the specific protein bands were quantified using a scanning densitometer (Eagle Eye II still video system, Stratagene, La Jolla, Calif.).

Assay [2] deals with WI38 cells. Nature of the assay: Reversal experiment, triglyceride (triolein) uptake by WI38 cells. It is filed as cell-based, human. The following applies: RGZ 10^−5 M, PTHrP 5×10^−7 M, DBcAMP 1×10^−5 M for 7 days after nicotine.
Assay [3] concerns WI38 cells. The assay is described as follows: Western blot of lipogenic and myogenic marker proteins in WI38 cells (nicotine with or without lipogenic pathway agonists). It is filed as cell-based, human. The following applies: PTHrP 5×10^−7 M, DBcAMP 1×10^−4 M, RGZ 1×10^−5 M. How it is done:
(§1) The human embryonic cell line WI38 was obtained from American Type Culture Collection (Rockville, Md.). Cells were grown in MEM plus 10% FBS at 37° C. in six-well plates, four-well slides, and 60- and 100-mm culture dishes as needed.
Western blotting was performed with modifications of methods described previously (Ayad and Wong (1998) Crit. Care Med 26: 1277-1282). […] Equal amounts of the protein (25 μg) from the supernatant were dissolved in electrophoresis sample buffer and were subjected to SDS-PAGE (4-12% gradient) followed by electrophoretic transfer to a nitrocellulose membrane. Nonspecific binding of antibody was blocked by washing with Tris-buffered saline (TBS) containing 5% milk for 1 h. The blot was then subjected to two brief washes with TBS plus 0.5% Tween 20, incubated in TBS plus 0.1% Tween 20 and the specific primary antibodies (PPAR 1:2,000, Alexis Biochemicals, San Diego, Calif.; -SMA 1:50,000, Sigma; ADRP 1:3,000, a kind gift from Dr. Constantine Londos, National Institute of Diabetes and Digestive and Kidney Diseases) overnight at 4° C. Blots were then washed in TBS plus 0.1% Tween 20 and then incubated for 1 h in secondary antibody, washed, and developed with a chemiluminescent substrate (ECL; Amersham, Arlington Heights, Ill.) following the manufacturer's protocol.
(In western blotting, separated proteins are transferred to a membrane and probed.)

The subject of assay [4] is WI38 cells. The assay is described as follows: Triglyceride uptake assay ([3H]triolein) in WI38 cells. It is filed as cell-based, human. The following applies: concomitant treatment; RGZ 1×10^−5 M, PTHrP 5×10^−7 M, DBcAMP 1×10^−4 M; nicotine 1×10^−9 M, 7 days. How it is done:
as §1
The method used to quantitate triglyceride uptake by fetal rat lung fibroblasts has been described previously (Torday et al. (1995) Biochim Biophys Acta 1254: 198-206). Briefly, culture medium was replaced with DMEM containing 20% adult rat serum mixed with [3H]triolein (5 μCi/ml). The cells were incubated at 37° C. in 5% CO2+balance air for 4 h. At the termination of the incubation, the medium was decanted, the cells were rinsed twice with 1 ml of ice-cold MEM, and the cells were removed from the culture plate after a 5- to 10-min incubation with 2 ml of a 0.05% trypsin solution. An aliquot of the cell suspension was taken for protein assay (Bradford (1976) Anal Biochem 72: 248-254), and the remaining cell suspension was extracted for neutral lipid content.

Assay [5] concerns WI38 cells. The assay is described as follows: Reversal experiment, immunofluorescence double staining (ADRP or lipid droplets and αSMA) in WI38 cells. It is filed as cell-based, human. The following applies: RGZ 1×10^−5 M, DBcAMP 1×10^−5 M, 7 days after nicotine.
Description: Cells were grown in minimum essential medium (MEM) +10% fetal bovine serum at 37° C. in six-well plates, two well slides, and 60-mm and 100-mm culture dishes, as needed. […] Subsequently, the cells were treated with rosiglitazone (RGZ) (1×10^−5 M) (a PPARγ agonist), PTHrP (5×10^−7 M), or DBcAMP (1×10^−5 M) for 7 days, and the expression of PTHrP receptor, PPARγ, ADRP, calponin, and cSMA was determined by Western analysis and immunohistochemistry. Simultaneously, fibroblast function was characterized by measuring their capacity to take up triglycerides. Some experiments were performed in the presence of a specific PPARγ antagonist, GW9662. Medium containing fresh chemicals was added daily, and at the end of the experimental period the cells were processed as needed.
The lipogenic and myogenic status of cultured WI38 cells was assessed by simultaneous staining for either lipid droplets or ADRP and αSMA. Lipids were detected by using either oil red 0 staining or ADRP expression (polyclonal anti-ADRP 1:500), and αSMA expression was assessed by using anti-αSMA (1:1000, mouse monoclonal IgG2a, Sigma, catalog No. A2547) primary antibody. […] At the end of the experimental period, slides were fixed in freshly prepared 4% paraformaldehyde. […] Slides were rinsed three times for 5 min and then mounted and visualized under a fluorescence microscope.

Consider PTHrP-(1-34), for which, in the assay on WI38 cells [1], the “reversal of nicotine-induced decrease in PTHrP receptor expression” value is listed as “reversed”; the “reversal of nicotine-induced decrease in PPARγ expression” value is on record as “reversed”; the “reversal of nicotine-induced increase in αSMA expression” value is given as “reversed”; the “reversal of nicotine-induced changes in expression of PTHrP receptor, PPARγ, ADRP, αSMA and calponin” value was “almost completely reversed”. Moreover, in the assay on WI38 cells [2], the “block of nicotine-induced decrease in triolein uptake” value is “at least partially blocked”. In the assay with WI38 cells [3], the “prevention of nicotine-induced decreases in PTHrP receptor and PPAR and increase in α-SMA protein expression” value is reported as “completely prevented”. Also, in the assay with WI38 cells [4], the “prevention of nicotine-induced decrease in triglyceride uptake” value is given as “effectively prevented”.

On to `CCCC(=O)Nc1ncnc2c1ncn2[C@@H]1O[C@@H]2COP(=O)(O)O[C@H]2[C@H]1OC(=O)CCC` [DBcAMP, dibutyryl cAMP], for which, in the assay on WI38 cells [1], the “reversal of nicotine-induced decrease in PTHrP receptor expression” value was “reversed”; the “reversal of nicotine-induced decrease in PPARγ expression” value is recorded as “did not reach statistical significance”; the “reversal of nicotine-induced increase in αSMA expression” value is “reversed”; the “reversal of nicotine-induced changes in expression of PTHrP receptor, PPARγ, ADRP, αSMA and calponin” value is recorded as “almost completely reversed”. In addition, the “block of nicotine-induced decrease in triolein uptake” value with WI38 cells [2] is reported as “at least partially blocked”. Further, the “reversal of nicotine-induced decreases in ADRP and lipid droplet staining and increase in αSMA staining” value with WI38 cells [5] is recorded as “reversed”. Also, the “prevention of nicotine-induced decreases in PTHrP receptor and PPAR and increase in α-SMA protein expression” value in the assay with WI38 cells [3] was “completely prevented”. Further, in the assay on WI38 cells [4], the “prevention of nicotine-induced decrease in triglyceride uptake” value is on record as “effectively prevented”.

For the origin of these results see patent US9173875B2, “Treatment for nicotine-induced lung disease using peroxisome proliferator-activated receptor gamma agonists” (Los Angeles Biomedical Research Institute at Harbor-UCLA …, priority 2006, dated 2015).
